Source: paper PMC11013252, “Exploration of the Antibacterial and Anti-Inflammatory Activity of a Novel Antimicrobial Peptide Brevinin-1BW” (Molecules, 2024)
Values after ≈ are worked out from the molar mass of the structure shown. Positions of bridges follow the written chain, without caps; N, C: chain ends. Residues, ends and D or L forms follow the SMILES beside them.

How the values were obtained:
[1] = DPPH radical scavenging; settings: at 3.125 μg/mL, 37 °C, 30 min in the dark, absorbance 517 nm; without concentration dependence
Procedure: DPPH^+ scavenging capacity: A 30 mL volume of […], Shanghai, China) solution was prepared with anhydrous ethanol and adjusted to reach an OD517 nm = 0.7. […] The Brevinin-1BW and DPPH solutions were mixed in equal volumes as the experimental group, incubated at 37 °C in the dark for 30 min, and then measured for the absorbance as A2. Vitamin C was used as the positive control. Its clearance rate was calculated according to the following formula: […]

[2] = test system: IL-6 mRNA; experiment: mRNA expression in LPS-treated RAW264.7 cells, real-time PCR; format: cell-based, mouse
Procedure: (§1) RAW 264.7 mouse macrophages were cultured in DMEM medium (Gibco, New York, NY, USA). containing 10% FBS (TransGen Biotech, Beijing, China) and 1% penicillin-streptomycin (Biosharp, Guangzhou, China) and were seeded into 6-well plates at a cell density of 10^5 cells/mL. After cell adhesion, 1 μg/mL LPS (Solarbio, Beijing, China) and different concentrations of Brevinin-1BW (0, 1, 2, 3, and 4 μg/mL) were incubated for 24 h. Culture supernatants were collected, and the contents of TNFα, IL-6, and IL-1β were determined with enzyme-linked immunosorbent assay (BOSTER, Wuhan, China). All cells were washed twice with precooled PBS, total cellular RNA was extracted using the RNAsimple Total RNA Extraction kit (TIANGEN, Beijing, China), and total RNA concentration and purity were determined using a Thermo Fisher NanoDropOne nucleic acid protein spectrophotometer. HiScript II 1st Strand cDNA Synthesis Kit (Vazyme, Nanjing, China) synthesized cDNA, and we performed real-time PCR using Hieff® qPCR SYBR Green Master Mix (No Rox) (YEASEN, Shanghai, China). The primer sequences for Beta-actin (β-Actin), interleukins (IL-6, IL-1β), tumor necrosis factor (TNF-α), and nitric oxide synthase (iNOS) are shown in Table 6. Cells incubated without peptide and/or LPS were used as negative control. All experiments were repeated three times.

[3] = test system: TNF-α mRNA; experiment: as above; format: cell-based, mouse
Procedure: as §1

[4] = test system: IL-1β mRNA; experiment: as above; format: cell-based, mouse
Procedure: as §1

[5] = test system: iNOS mRNA; experiment: as above; format: cell-based, mouse
Procedure: as §1

[6] = LPS-binding assay, checkerboard with S. aureus; format: cell-based; settings: LPS higher than 5 μg/mL, 37 °C, 18 h, OD600
Procedure: The lipopolysaccharide-binding assay was performed using the checkerboard method. Dissolve and prepare LPS (Solarbio, Beijing, China) and Brevinin-1BW with Muller Hinton (MH), add LPS with a final concentration of 0–160 μg/mL along the X-axis, and add 100–0 μg/mL Brevinin-1BW along the Y-axis. Then, an additional 10^5 CFU of S. aureus was added to bring the final volume to 200 μL. It was incubated at 37 °C for 18 h, measure the OD 600 value, and the MIC value at different LPS concentrations was recorded. The experiment was repeated three times.

[7] = test system: S. aureus (ATCC25923); experiment: microbe, parasite or virus in culture; format: cell-based, Staphylococcus aureus
Procedure: (§2) The minimum inhibitory concentration (MIC) of the Brevinin-1BW was measured in 96-well microtiter plates according to the Clinical and Laboratory Standards Institute (CLSI). The activated strains were treated with Mueller Hinton Agar (MHA) solid medium. Single colonies were picked and expanded to the logarithmic growth phase, and the solution was diluted to 2 × 10^6 CFU/mL using the McFarland turbidity standard. The MIC was determined with the two-fold dilution method. Briefly, 50 μL of Mueller Hinton (MH) medium was added to a 96-well plate in advance. Then, 50 μL of AMP solution was added to the first well, and 50 μL was pipetted into the next well after mixing using a row gun, while 50 μL was discarded from the last well. Final concentrations of Brevinin-1BW were 100, 50, 25, 12.5, 6.25, and 3.125 μg/mL. A 50 μL volume of the diluted bacterial solution was added, and the final concentration of the bacterial solution was 1 × 10^6 CFU/mL. This was then placed into a 37 °C incubator for 18 h until the next day to observe the degree of turbidity of the 96-well plate and measure the absorbance of the wells at 600 nm with a multifunctional microplate reader (SpectraMax iD5, Molecular Devices, Sunnyvale, CA, USA). The absence of turbidity and the measured concentration of absorbance being less than the opposing group was taken as the MIC. The positive control used ampicillin at the same final concentration as Brevinin-1BW, the negative control used 50 μL of MH medium mixed with 50 μL of 2 × 10^6 CFU/mL bacterial solution, and the blank contained only 100 μL of MH medium. Three replicate wells were set up for each experiment, and each experiment was repeated three times. The MIC and all concentrations above the MIC of bacterial solution coated on MHA solid medium were placed into 37 °C incubator incubation for 18 h. The lowest concentration resulting in no colony growth was taken as the minimum bactericidal concentration (MBC).

[8] = test system: S. aureus (MDR ATCC29213); experiment: microbe, parasite or virus in culture; format: cell-based, Staphylococcus aureus; settings: ATCC29213, 18 h
Procedure: as §2

[9] = test system: E. coli (ATCC25922); experiment: microbe, parasite or virus in culture; format: cell-based; settings: ATCC25922, 18 h
Procedure: as §2

[10] = test system: RAW264.7; format: cell-based, mouse; settings: 24 h
Procedure: Medium was prepared to contain 10% FBS (TransGen Biotech, China) and 1% penicillin-streptomycin (Biosharp, Guangzhou, China). A549, U-2OS, HePG2, HaCaT, HUVEC, and 293T cells were cultured in DMEM medium (Gibco, New York, NY, USA). A375, HCT116, Hela, and RAW264.7 cells were cultured in RPMI 1640 medium (Gibco, New York, NY, USA). The cytotoxicity of Brevinin-1BW was determined using the Cell Counting Kit-8 as follows: detached the cells from cell culture flasks with 0.25% trypsin, counted with a hemocytometer plate and then prepared into a cell suspension containing 5 × 10^3 cells/mL. Then, 90 μL of the cell suspension was inoculated into a 96-well plate and incubated at 37 °C in a 5% CO2-humidified atmosphere for 24 h. A 10 μL volume of the peptide was subsequently added to each well and co-incubated with the cells for 24 h. Then, 10 μL of CCK8 (Abbkine, Wuhan, China) was added to each well and incubated for a further 2 h. The absorbance of each well at 450 nm was measured using a multifunctional enzyme marker. […] Three replicate wells were set up for each experiment, and each experiment was repeated three times. The formula for calculating the cell viability is shown below.

[11] = test system: HFF; format: cell-based, human; settings: 24 h

CC[C@H](C)[C@@H]1NC(=O)[C@H](CCCCN)NC(=O)[C@@H](NC(=O)[C@H](Cc2ccccc2)NC(=O)[C@@H](NC(=O)[C@@H](NC(=O)[C@@H]2CCCN2C(=O)[C@H](CC(C)C)NC(=O)[C@H](Cc2ccccc2)NC(=O)[C@H](CO)NC(=O)[C@H](C)NC(=O)[C@H](C)NC(=O)[C@H](CC(C)C)NC(=O)CNC(=O)[C@H](C)NC(=O)[C@H](CC(C)C)NC(=O)[C@H](CC(C)C)NC(=O)[C@@H]2CCCN2C(=O)[C@H](CC(C)C)NC(=O)[C@@H](N)Cc2ccccc2)[C@@H](C)O)[C@@H](C)CC)CSSC[C@@H](C(=O)O)NC(=O)[C@H](CCCCN)NC(=O)[C@H](CCCNC(=N)N)NC(=O)[C@H](CO)NC1=O [Brevinin-1BW] (H-FLPLLAGLAASFLPTIFCKISRKC-OH; disulfide 18-24)
scavenging of DPPH radicals [1]: more than 70%
decrease of IL-6 mRNA expression level [2]: 93.72%
decrease of TNF-α mRNA expression level [3]: 86.94%
decrease of IL-1β mRNA expression level [4]: 95.5%
decrease of iNOS mRNA expression level [5]: 81.37%
antibacterial activity against S. aureus in the presence of LPS [6]: gradually decreased
MBC ([7]; ATCC25923, 18 h): 6.25 µg/mL (≈ 2.4 µM)
MIC ([7]; ATCC25923, 18 h): 6.25 µg/mL (≈ 2.4 µM)
reduction of viability ([7]; S. aureus, at 6.25 μg/mL): 99.9%
MBC [8]: 25 µg/mL (≈ 9.58 µM)
MIC [8]: 6.25 µg/mL (≈ 2.4 µM)
MBC [9]: >100 µg/mL
MIC [9]: 100 µg/mL (≈ 38.3 µM)
CC50 [10]: 32.33 ± 0.47 µg/mL (≈ 12.4 µM)
CC50 [11]: 33.99 ± 0.48 µg/mL (≈ 13 µM)
